Test results: publication PMC8379669 (Computational and Structural Biotechnology Journal, 2021)

Target: GluN2B containing NMDAR (GluN1/GluN2B) in HEK-293 cells (Homo sapiens, UniProt Q05586+Q13224)
Test: Cell-based NMDAR activity assay
Conditions: not given

GluN2B containing NMDAR (GluN1/GluN2B) in HEK-293 cells, sequence (Q13224 27-1484, species assumed, other chains not shown): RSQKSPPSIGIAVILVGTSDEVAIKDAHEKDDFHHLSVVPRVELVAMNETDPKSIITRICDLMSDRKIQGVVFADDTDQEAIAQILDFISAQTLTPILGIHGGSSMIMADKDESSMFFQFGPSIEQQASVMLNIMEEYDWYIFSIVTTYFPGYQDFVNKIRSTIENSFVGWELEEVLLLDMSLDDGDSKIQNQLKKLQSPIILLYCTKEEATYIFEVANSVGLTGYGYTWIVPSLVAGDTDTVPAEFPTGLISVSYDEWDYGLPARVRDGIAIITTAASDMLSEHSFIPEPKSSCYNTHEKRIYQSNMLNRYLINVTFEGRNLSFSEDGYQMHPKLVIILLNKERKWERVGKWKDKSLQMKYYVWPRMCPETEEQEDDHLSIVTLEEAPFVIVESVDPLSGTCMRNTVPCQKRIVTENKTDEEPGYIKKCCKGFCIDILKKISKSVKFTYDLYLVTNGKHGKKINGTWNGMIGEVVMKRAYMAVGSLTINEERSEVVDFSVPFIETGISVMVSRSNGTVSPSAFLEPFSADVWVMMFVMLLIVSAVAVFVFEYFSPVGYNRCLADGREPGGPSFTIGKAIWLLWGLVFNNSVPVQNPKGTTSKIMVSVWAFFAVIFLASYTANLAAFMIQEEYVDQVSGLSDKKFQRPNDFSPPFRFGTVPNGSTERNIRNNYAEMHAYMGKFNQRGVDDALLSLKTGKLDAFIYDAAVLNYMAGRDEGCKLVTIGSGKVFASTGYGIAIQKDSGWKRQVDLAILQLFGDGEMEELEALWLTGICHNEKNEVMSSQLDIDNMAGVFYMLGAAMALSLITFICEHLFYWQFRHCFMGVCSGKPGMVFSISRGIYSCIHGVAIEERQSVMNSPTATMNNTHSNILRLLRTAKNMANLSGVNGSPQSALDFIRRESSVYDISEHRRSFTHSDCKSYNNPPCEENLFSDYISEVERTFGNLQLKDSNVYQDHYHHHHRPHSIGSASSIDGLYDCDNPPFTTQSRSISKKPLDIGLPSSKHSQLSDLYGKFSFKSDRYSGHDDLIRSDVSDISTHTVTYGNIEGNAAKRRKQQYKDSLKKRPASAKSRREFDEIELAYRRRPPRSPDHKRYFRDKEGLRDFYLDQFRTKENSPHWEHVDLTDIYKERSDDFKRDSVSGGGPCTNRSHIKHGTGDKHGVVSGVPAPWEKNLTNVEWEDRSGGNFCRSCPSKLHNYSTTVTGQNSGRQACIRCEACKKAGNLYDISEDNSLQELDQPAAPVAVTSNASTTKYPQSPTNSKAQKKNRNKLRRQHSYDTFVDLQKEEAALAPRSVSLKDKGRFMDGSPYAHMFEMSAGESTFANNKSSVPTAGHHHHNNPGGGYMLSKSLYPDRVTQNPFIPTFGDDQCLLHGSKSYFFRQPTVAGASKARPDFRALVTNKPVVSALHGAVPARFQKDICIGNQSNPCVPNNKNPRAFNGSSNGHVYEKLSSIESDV

| Compound | IC50 |
| --- | --- |
| CCOC(=O)C1CCc2nc3cc(-c4cnn(C)c4)ccc3c(N)c2C1 (stereo not shown) [Compound 10, Ethyl-9-amino-6-(1-methyl-1H-pyrazol-4-yl)-1,2,3,4-tetrahydroacridine-2-carboxylate] | 31.1 ± 4.8 µM |
| CNC(=O)C1CCc2nc3cc(-c4cnn(C)c4)ccc3c(N)c2C1 (stereo not shown) [Compound 14, 9-amino-N-methyl-6-(1-methyl-1H-pyrazol-4-yl)-1,2,3,4-tetrahydroacridine-2-carboxamide] | 33.9 ± 8.41 µM |
| CCOC(=O)C1CCc2nc3cc(-c4ccc(F)cc4)ccc3c(N)c2C1 (stereo not shown) [Compound 107, ethyl 9-amino-6-(4-fluorophenyl)-1,2,3,4-tetrahydroacridine-2-carboxylate] | 15.8 ± 3.44 µM |
| Cn1cc(-c2ccc3c(N)c4c(nc3c2)CCCC4)cn1 [Compound 201, 6-(1-methyl-1H-pyrazol-4-yl)-1,2,3,4-tetrahydroacridin-9-amine] | 15.2 ± 6.14 µM |
| Nc1c2c(nc3cc(-c4cncnc4)ccc13)CCCC2 [Compound 203, 6-(pyrimidin-5-yl)-1,2,3,4-tetrahydroacridin-9-amine] | 28.1 ± 5.1 µM |

Same assay, conditions: HEK293, read-out: inhibition of NMDAR activity

| Compound | inhibition at 100 µM |
| --- | --- |
| Cn1cc(-c2ccc3c(N)c4c(nc3c2)CCCC4)cn1 [Compound 201, 6-(1-methyl-1H-pyrazol-4-yl)-1,2,3,4-tetrahydroacridin-9-amine] | ~100% |

Same assay, conditions: based on NMDAR IC50

| Compound | category of NMDAR inhibitor |
| --- | --- |
| CNC(=O)C1CCc2nc3cc(-c4cnn(C)c4)ccc3c(N)c2C1 (stereo not shown) [Compound 14, 9-amino-N-methyl-6-(1-methyl-1H-pyrazol-4-yl)-1,2,3,4-tetrahydroacridine-2-carboxamide] | reduced |
| Cn1cc(-c2ccc3c(N)c4c(nc3c2)CCCC4)cn1 [Compound 201, 6-(1-methyl-1H-pyrazol-4-yl)-1,2,3,4-tetrahydroacridin-9-amine] | moderate (moderate (IC50 < 20 μM)) |

Same assay, conditions: initial screening studies

| Compound | antagonism of NMDAR activity, in words |
| --- | --- |
| Cn1cc(-c2ccc3c(N)c4c(nc3c2)CCCC4)cn1 [Compound 201, 6-(1-methyl-1H-pyrazol-4-yl)-1,2,3,4-tetrahydroacridin-9-amine] | effective in antagonizing NMDAR activity |
| Nc1c2c(nc3cc(-c4cncnc4)ccc13)CCCC2 [Compound 203, 6-(pyrimidin-5-yl)-1,2,3,4-tetrahydroacridin-9-amine] | effective in antagonizing NMDAR activity |

System: HepG2 cells
Test: MTT cytotoxicity assay on HepG2 cells
Conditions: 10-300 μM, 24 h

| Compound | cytotoxicity on HepG2 cells, in words |
| --- | --- |
| CNC(=O)C1CCc2nc3cc(-c4cnn(C)c4)ccc3c(N)c2C1 (stereo not shown) [Compound 14, 9-amino-N-methyl-6-(1-methyl-1H-pyrazol-4-yl)-1,2,3,4-tetrahydroacridine-2-carboxamide] | non-toxic |
| Cn1cc(-c2ccc3c(N)c4c(nc3c2)CCCC4)cn1 [Compound 201, 6-(1-methyl-1H-pyrazol-4-yl)-1,2,3,4-tetrahydroacridin-9-amine] | non-toxic |
| Nc1c2c(nc3cc(-c4cncnc4)ccc13)CCCC2 [Compound 203, 6-(pyrimidin-5-yl)-1,2,3,4-tetrahydroacridin-9-amine] | slight toxicity |

System: MSG induced cognitive impairment in rats
Test: Morris water maze test in MSG treated rats
Assay type: in vivo
Conditions: rat, IP, 3 mg/Kg body weight with MSG 4 g/Kg; vs MSG alone

| Compound | escape latency in MWM, 5 days |
| --- | --- |
| Cn1cc(-c2ccc3c(N)c4c(nc3c2)CCCC4)cn1 [Compound 201, 6-(1-methyl-1H-pyrazol-4-yl)-1,2,3,4-tetrahydroacridin-9-amine] | significantly reduced the escape latency |

System: rat primary cortical neurons
Test: Glutamate-induced excitotoxicity, MTT assay
Assay type: cell-based
Conditions: DIV9 neurons, glutamate 3 h, MTT after 24 h; pre-treatment with compounds

| Compound | reduction in neuronal viability by glutamate (MTT assay) |
| --- | --- |
| Cn1cc(-c2ccc3c(N)c4c(nc3c2)CCCC4)cn1 [Compound 201, 6-(1-methyl-1H-pyrazol-4-yl)-1,2,3,4-tetrahydroacridin-9-amine] | averted |

System: rat liver
Test: In vivo hepatotoxicity assessment by liver histopathology
Conditions: IP, 15 days, 201 3 mg/Kg, 208 1 mg/Kg, tacrine 5 mg/Kg

| Compound | liver histopathology (H&E), in words |
| --- | --- |
| Cn1cc(-c2ccc3c(N)c4c(nc3c2)CCCC4)cn1 [Compound 201, 6-(1-methyl-1H-pyrazol-4-yl)-1,2,3,4-tetrahydroacridin-9-amine] | did not show any change in the liver architecture |

Target: BChE from equine serum (Equus caballus, UniProt P81908)
Test: biochemical
Assay type: biochemical
Conditions: not given

BChE from equine serum, sequence (P81908 whole entry): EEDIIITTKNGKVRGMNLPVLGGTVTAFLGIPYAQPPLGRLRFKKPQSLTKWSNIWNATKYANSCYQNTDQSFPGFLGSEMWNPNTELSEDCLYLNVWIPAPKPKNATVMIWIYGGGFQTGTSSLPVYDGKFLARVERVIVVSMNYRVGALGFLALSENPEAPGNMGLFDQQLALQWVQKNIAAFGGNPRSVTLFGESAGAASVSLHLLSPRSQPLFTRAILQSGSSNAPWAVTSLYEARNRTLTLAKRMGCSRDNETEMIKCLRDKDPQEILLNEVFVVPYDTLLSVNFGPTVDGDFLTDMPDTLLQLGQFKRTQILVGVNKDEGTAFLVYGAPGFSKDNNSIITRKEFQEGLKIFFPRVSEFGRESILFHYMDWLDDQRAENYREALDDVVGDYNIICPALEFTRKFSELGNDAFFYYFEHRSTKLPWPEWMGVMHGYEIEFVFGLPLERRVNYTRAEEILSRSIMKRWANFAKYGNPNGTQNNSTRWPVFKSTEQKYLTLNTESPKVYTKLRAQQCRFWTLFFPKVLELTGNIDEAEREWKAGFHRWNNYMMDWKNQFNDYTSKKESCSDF

| Compound | IC50 |
| --- | --- |
| CCOC(=O)C1CCc2nc3cc(-c4cnn(C)c4)ccc3c(N)c2C1 (stereo not shown) [Compound 10, Ethyl-9-amino-6-(1-methyl-1H-pyrazol-4-yl)-1,2,3,4-tetrahydroacridine-2-carboxylate] | 4.39 ± 0.28 µM |
| CNC(=O)C1CCc2nc3cc(-c4cnn(C)c4)ccc3c(N)c2C1 (stereo not shown) [Compound 14, 9-amino-N-methyl-6-(1-methyl-1H-pyrazol-4-yl)-1,2,3,4-tetrahydroacridine-2-carboxamide] | 16.4 ± 0.54 µM |
| CCOC(=O)C1CCc2nc3cc(-c4ccc(F)cc4)ccc3c(N)c2C1 (stereo not shown) [Compound 107, ethyl 9-amino-6-(4-fluorophenyl)-1,2,3,4-tetrahydroacridine-2-carboxylate] | 1.35 ± 0.09 µM |
| Cn1cc(-c2ccc3c(N)c4c(nc3c2)CCCC4)cn1 [Compound 201, 6-(1-methyl-1H-pyrazol-4-yl)-1,2,3,4-tetrahydroacridin-9-amine] | 0.85 ± 0.01 µM |
| Nc1c2c(nc3cc(-c4cncnc4)ccc13)CCCC2 [Compound 203, 6-(pyrimidin-5-yl)-1,2,3,4-tetrahydroacridin-9-amine] | 1.5 ± 0.2 µM |

Same assay, conditions: BChE from equine serum

| Compound | IC50 values (mean ± SD) BChE |
| --- | --- |
| Cn1cc(-c2ccc3c(N)c4c(nc3c2)CCCC4)cn1 [Compound 201, 6-(1-methyl-1H-pyrazol-4-yl)-1,2,3,4-tetrahydroacridin-9-amine] | submicromolar |

Target: AChE from Electrophorus electricus (electric eel) (Electrophorus electricus, UniProt O42275)
Test: In vitro AChE inhibition assay
Assay type: biochemical
Conditions: not given

AChE from Electrophorus electricus (electric eel), sequence (O42275 24-633): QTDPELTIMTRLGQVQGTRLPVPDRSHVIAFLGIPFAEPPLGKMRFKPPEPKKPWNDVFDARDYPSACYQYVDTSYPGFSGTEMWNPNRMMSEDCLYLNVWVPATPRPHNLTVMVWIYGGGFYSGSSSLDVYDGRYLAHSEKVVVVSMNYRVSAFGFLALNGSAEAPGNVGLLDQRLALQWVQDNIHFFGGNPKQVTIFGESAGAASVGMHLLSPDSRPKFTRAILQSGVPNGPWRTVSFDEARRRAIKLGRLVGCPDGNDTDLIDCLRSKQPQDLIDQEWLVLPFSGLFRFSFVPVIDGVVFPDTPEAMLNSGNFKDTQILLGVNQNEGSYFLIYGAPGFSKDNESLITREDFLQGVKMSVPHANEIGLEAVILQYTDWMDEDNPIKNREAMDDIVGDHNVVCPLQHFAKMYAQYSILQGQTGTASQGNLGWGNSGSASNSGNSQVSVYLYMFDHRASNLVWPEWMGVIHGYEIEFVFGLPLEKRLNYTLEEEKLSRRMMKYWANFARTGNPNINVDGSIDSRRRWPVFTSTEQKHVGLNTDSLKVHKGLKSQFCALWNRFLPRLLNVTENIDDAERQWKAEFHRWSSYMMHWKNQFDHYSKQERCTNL

| Compound | IC50 |
| --- | --- |
| CCOC(=O)C1CCc2nc3cc(-c4cnn(C)c4)ccc3c(N)c2C1 (stereo not shown) [Compound 10, Ethyl-9-amino-6-(1-methyl-1H-pyrazol-4-yl)-1,2,3,4-tetrahydroacridine-2-carboxylate] | 0.107 ± 0.0087 µM |
| CNC(=O)C1CCc2nc3cc(-c4cnn(C)c4)ccc3c(N)c2C1 (stereo not shown) [Compound 14, 9-amino-N-methyl-6-(1-methyl-1H-pyrazol-4-yl)-1,2,3,4-tetrahydroacridine-2-carboxamide] | 0.132 ± 0.0077 µM |
| CCOC(=O)C1CCc2nc3cc(-c4ccc(F)cc4)ccc3c(N)c2C1 (stereo not shown) [Compound 107, ethyl 9-amino-6-(4-fluorophenyl)-1,2,3,4-tetrahydroacridine-2-carboxylate] | 0.135 ± 0.0103 µM |
| Cn1cc(-c2ccc3c(N)c4c(nc3c2)CCCC4)cn1 [Compound 201, 6-(1-methyl-1H-pyrazol-4-yl)-1,2,3,4-tetrahydroacridin-9-amine] | 0.0409 ± 0.00482 µM |
| Nc1c2c(nc3cc(-c4cncnc4)ccc13)CCCC2 [Compound 203, 6-(pyrimidin-5-yl)-1,2,3,4-tetrahydroacridin-9-amine] | 0.0185 ± 0.00209 µM |

System: rat primary cortical neurons
Test: Glutamate-induced excitotoxicity, MAP2 immunostaining and DAPI staining
Assay type: cell-based
Conditions: DIV9 neurons, 100 µM glutamate and 10 µM glycine

| Compound | condensed nuclei / viable cells (DAPI staining) after glutamate | decrease in MAP2 positive cells and loss of neuronal architecture caused by glutamate |
| --- | --- | --- |
| CNC(=O)C1CCc2nc3cc(-c4cnn(C)c4)ccc3c(N)c2C1 (stereo not shown) [Compound 14, 9-amino-N-methyl-6-(1-methyl-1H-pyrazol-4-yl)-1,2,3,4-tetrahydroacridine-2-carboxamide] | clear decrease in the number of condensed nuclei | prevented |
| Cn1cc(-c2ccc3c(N)c4c(nc3c2)CCCC4)cn1 [Compound 201, 6-(1-methyl-1H-pyrazol-4-yl)-1,2,3,4-tetrahydroacridin-9-amine] | clear decrease in the number of condensed nuclei | prevented |
